The supplement of paper PMC10702517
± gives the standard deviation.

How the values were obtained:
[1] = chemical recovery from spiked human plasma; higher = better extraction; settings: pooled human plasma
[2] = chemical recovery into PDMS from spiked human plasma; higher = better extraction; settings: pooled human plasma, extraction method: PES with PDMS
[3] = chemical recovery by SPE of plasma after PDMS sampling; higher = better extraction; settings: pooled human plasma, extraction method: HLB SPE of plasma after PES
[4] = extraction method: SPE only (HLB 96-well)
[5] = extraction method: SPE only (HLB 96-well), PES comparison experiment
[6] = extraction method: solvent precipitation (ACN + hexane)
[7] = extraction method: PES+SPE (3 d PDMS equilibration then HLB SPE)
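For chemical recovery by SPE of plasma after PDMS sampling in this document: over 400 spiked chemicals quantified by LC-HRMS or GC-HRMS via internal standard calibration, recovery relative to spike mix added to unspiked plasma extract to correct matrix effects.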

Structure (SMILES)	chemical recovery [1, 4]	chemical recovery [1, 5]	chemical recovery [1, 6]	chemical recovery into PDMS ([2]; equilibration time (d): 1)	chemical recovery into PDMS ([2]; equilibration time (d): 3)	chemical recovery into PDMS ([2]; equilibration time (d): 6)	chemical recovery [1, 7]	chemical recovery by SPE of plasma ([3]; equilibration time (d): 1)	chemical recovery by SPE of plasma ([3]; equilibration time (d): 3)	chemical recovery by SPE of plasma ([3]; equilibration time (d): 6)
O=S1OC[C@@H]2[C@H](CO1)[C@]1(Cl)C(Cl)=C(Cl)[C@]2(Cl)C1(Cl)Cl (stereo partly drawn) [beta-Endosulfan]	3.92 ± 1.1%	15.9 ± 3.6%	17.7 ± 8.9%	60.6 ± 7.8%	77.8 ± 18%	80.6 ± 18%				
CC(C)(C)C(O)C(Oc1ccc(Cl)cc1)n1cncn1 (stereo not drawn) [Triadimenol]		47.4 ± 7.7%	68.9 ± 3.2%	39.4 ± 1.5%	43.5 ± 3.8%	43.6 ± 0.11%				
CC(C)N(C(=O)SCC(Cl)=C(Cl)Cl)C(C)C [Triallate]	16.3 ± 5%	22.8 ± 6.1%	76.8 ± 11%	29 ± 1.7%	32.2 ± 4%	29.8 ± 1.9%				
C/C(=C\c1ccccc1)c1ccccc1 [trans-a-Methylstilbene]					97.6 ± 13%	112 ± 44%				
CCCN(CC)CC1COC2(CCC(C(C)(C)C)CC2)O1 (stereo not drawn) [Spiroxamine]	47.5 ± 0.85%	43.7 ± 7.8%					0.223 ± 0.025%	0.0924 ± 0.066%	0.0829 ± 0.053%	0.0434 ± 0.0086%
CC1=CC(=O)NS(=O)(=O)O1 [Acesulfame]	19.4 ± 5.8%		93.4 ± 4.7%				11.2 ± 1.4%		1.86 ± 0.99%	8.53 ± 4.2%
CCc1cccc(C)c1N(C(=O)CS(=O)(=O)O)C(C)COC (stereo not drawn) [Metolachlor ESA]	33.2 ± 2.9%	46.9 ± 4%	69.1 ± 3.4%				0.65 ± 0.11%	38.9 ± 5.3%	42.9 ± 5.7%	39.7 ± 6.8%
CC[C@H]1OC(=O)[C@H](C)[C@@H](O[C@H]2C[C@@](C)(OC)[C@@H](O)[C@H](C)O2)[C@H](C)[C@@H](O[C@@H]2O[C@H](C)C[C@H](N(C)C)[C@H]2O)[C@](C)(OC)C[C@@H](C)C(=O)[C@H](C)[C@@H](O)[C@]1(C)O [Clarithromycin]	45.1 ± 2.3%	44.1 ± 6.5%	69.1 ± 2.1%				30.2 ± 4.1%	22 ± 3.3%	24.4 ± 2.8%	22.3 ± 2.2%
Cc1cccc(Nc2ccccc2C(=O)O)c1C [Mefenamic acid]	45 ± 7.8%	15.7 ± 2.9%	54.2 ± 2.1%				60.9 ± 5.4%	14.9 ± 5%	16.4 ± 0.37%	14.5 ± 3%
C=Cc1c2ccccc2cc2ccccc12 [9-Vinylanthracene]	2.31 ± 0.48%						42.05 ± 0.27%	3.04 ± 5.3%	3.05 ± 5.3%	2.42 ± 4.2%
CCc1cccc(C)c1NC(=O)CS(=O)(=O)O [Metolachlor CGA 368-208]		47.9 ± 5.2%						37.9 ± 8.1%	46.1 ± 2.7%	43.1 ± 7.2%
CCCCCCCCCCCC[N+](C)(C)Cc1ccccc1 [Benzyldimethyldodecylammonium]		46.5 ± 13%						39.1 ± 6.7%	43.2 ± 10%	
CCc1cccc(C)c1NC(=O)CS(=O)(=O)O		42.9 ± 4.2%						37.4 ± 8.2%	40.4 ± 2%	40.3 ± 9.3%
CCCCNS(=O)(=O)c1ccccc1 [N-Butylbenzenesulfonamide]	48.7 ± 6.1%						45.4 ± 6.6%	11.4 ± 0.85%	17.5 ± 1.5%	11.5 ± 1.4%
Cc1ccc(S(=O)(=O)O)c(C)c1 [m-Xylene-4-sulfonic acid]	46.9 ± 14%	45.2 ± 4.9%	74.3 ± 4.9%						36.3 ± 2.3%	38.3 ± 8.9%
CC(C(=O)O)c1cccc(C(=O)c2ccccc2)c1 (stereo not drawn) [Ketoprofen]	46.1 ± 2.4%	53.1 ± 4.2%	68.4 ± 3.2%				56.1 ± 6%	47.5 ± 5.5%	54 ± 2.6%	48.2 ± 2.2%
NC(=O)N1c2ccccc2C(O)C(O)c2ccccc21 (stereo not drawn) [10,11-Dihydro-10,11-dihydroxycarbamazepine]	44.9 ± 4.7%	48.4 ± 4.8%	71 ± 2.8%				45.5 ± 5.2%		69.9 ± 7.5%	
Cc1cnc2c(C(=O)O)c(Cl)ccc2c1 [Quinmerac]	40.8 ± 3.5%	52.2 ± 6.4%	65.8 ± 4.1%				43.6 ± 2.5%	54.5 ± 9.6%	61.1 ± 6.2%	56.5 ± 1.8%
Clc1ccc(C(c2ccc(Cl)cc2)C(Cl)Cl)cc1 [4,4-DDD]				1.61 ± 0.67%	1.42 ± 0.086%	1.39 ± 0.11%				
C1=Cc2cccc3cccc1c23 [Acenaphthylene]	3.51 ± 0.93%								10.5 ± 4.6%	2.28 ± 8%
CCC1=C(C)CN(C(=O)NCCc2ccc(S(=O)(=O)NC(=O)NC3CCC(C)CC3)cc2)C1=O (stereo not drawn) [Glimepiride]	32 ± 1.9%	42.6 ± 4.8%	71.4 ± 5.3%				36.8 ± 4.8%	46.6 ± 3.4%	45.2 ± 1.8%	42.1 ± 3%
CC(C)N1C(=O)c2ccccc2NS1(=O)=O [Bentazone]	41.7 ± 3.2%	63.8 ± 5.6%	75.2 ± 2.8%				44.5 ± 3.6%	54.8 ± 8.1%	58 ± 4.1%	54.7 ± 3.1%
CCOC(=O)[C@H](CCc1ccccc1)N[C@@H](C)C(=O)N1CCC[C@H]1C(=O)O [Enalapril]	36.2 ± 1.4%	37.8 ± 5.6%	70.5 ± 3.8%				42.2 ± 3.9%	43.2 ± 7.6%	47 ± 2.3%	44.9 ± 4.6%
O=c1cc(O)c2ccccc2o1 [4-Hydroxycoumarin]		13.2 ± 3.1%						69.3 ± 16%	64.3 ± 4.7%	78 ± 15%
Oc1ccc(Cl)cc1 [4-Chlorophenol]	35.2 ± 7.2%	60.1 ± 5.1%	98 ± 9.7%				33.9 ± 11%	60 ± 12%	66.4 ± 6.9%	59.4 ± 4.3%
Cc1cccc(C(=O)O)c1N(Cn1cccn1)C(=O)C(=O)O [Metazachlor BH479-12]		37.9 ± 3.8%						42 ± 6%	49.95 ± 0.36%	46.4 ± 4.8%
COc1cc(OC)nc(NC(=O)NS(=O)(=O)N(C)S(C)(=O)=O)n1 [Amidosulfuron]	41 ± 4.5%	49.1 ± 5.6%	70.2 ± 3.1%				46.6 ± 16%	46.5 ± 7.7%	49.1 ± 5.5%	45.9 ± 6.6%
O=S(=O)(O)c1nc2ccccc2s1 [2-Benzothiazolesulfonic acid]	61.2 ± 20%	46 ± 4.3%	88.4 ± 4.2%					31.8 ± 4.8%	42.3 ± 0.92%	39.9 ± 5.4%
CCCCc1nc(Cl)c(CO)n1Cc1ccc(-c2ccccc2-c2nnn[nH]2)cc1 [Losartan]	41.2 ± 2.9%	40.8 ± 7.5%	77.2 ± 3.6%				44.5 ± 4.3%	44.8 ± 3.8%	50.8 ± 2.6%	46.7 ± 1.6%
